# Test results taken from paper PMC11866407, “Structure of Clostridium leptum carboxyspermidine decarboxylase and comparison to homologs prevalent within the human gut microbiome” (Acta Crystallographica Section F: Structural Biology …, 2025).
# Target: T1, Clostridium leptum carboxyspermidine decarboxylase (ClCASDC) ([Clostridium] leptum, UniProt A7VSG2)
# T1 construct: gene nspC; full length (376 residues), N-terminal His6 tag kept (pET-28b NdeI/XhoI), E. coli BL21 (DE3), codon-optimized; homodimer
# T1 sequence (A7VSG2 1-376): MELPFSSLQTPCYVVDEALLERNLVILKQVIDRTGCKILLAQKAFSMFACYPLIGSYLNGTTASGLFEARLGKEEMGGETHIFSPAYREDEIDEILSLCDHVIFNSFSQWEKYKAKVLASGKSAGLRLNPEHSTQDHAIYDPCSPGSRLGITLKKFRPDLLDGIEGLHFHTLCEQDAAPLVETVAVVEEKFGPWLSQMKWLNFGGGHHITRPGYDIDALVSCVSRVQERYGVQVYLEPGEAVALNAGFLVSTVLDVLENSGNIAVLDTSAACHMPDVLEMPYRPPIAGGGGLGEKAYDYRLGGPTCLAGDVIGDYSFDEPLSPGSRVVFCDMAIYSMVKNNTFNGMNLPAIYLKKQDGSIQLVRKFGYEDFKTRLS
# Assay: X-ray crystal structure, […] Å
# Type: binding
# Details: covalent; Schiff base (internal aldimine) with Lys43; pre-incubated with 100 µM PLP, 5 mM DTT; HEPES pH 6.8; both chains
smiles,measurement,value
"Cc1ncc(COP(=O)(O)O)c(C=O)c1O [PLP, pyridoxal 5′-phosphate]","X-ray crystal structure, 1.41 Å",PLP forms a Schiff base with Lys43 in both chains
